The source of these data is patent EP0590885B1, “Antibiotic carbapenem compounds” (ZENECA LIMITED, priority 1992, dated 1994).

What all share (assay): MIC by agar-dilution technique, Diagnostic Sensitivity Test
Holding throughout (assay type): cell-based

In one assay the test system is E. coli TEM. The conditions noted are these: Escherichia coli. From the text:
(§1) The following results were obtained for representative compounds on a standard in vitro test system using Diagnostic Sensitivity Test. The antibacterial activity is described in terms of the minimum inhibitory concentration (MIC) determined by the agar-dilution technique with an inoculum size of 10^4 CFU/spot.

In assay [1] the test system is Enterobacter cloacae -029. The conditions noted are these: inoculum size 10^4 CFU/spot.
Source text: as §1

The test system of a further assay is Enterobacter cloacae 108. The settings on record: inoculum size 10^4 CFU/spot.
Source text: as §1

In another assay the test system is S. aureus 147N. The settings on record: Staphylococcus aureus, inoculum size 10^4 CFU/spot.
Source text: as §1

The structures appear in SMILES notation. Converted amounts (≈) assume the structure as drawn.

As a reminder, the MIC is the least concentration at which growth counts as inhibited.

Regarding `C[C@@H](O)[C@H]1C(=O)N2C(C(=O)O)=C(S[C@@H]3CN[C@H](C(=O)Nc4cccc(OCC(=O)O)c4)C3)[C@H](C)[C@H]12` [Example 3, (1R,5S,6S,8R,2'S,4'S)-2-(2-(3-Carboxymethoxyphenylcarbamoyl)pyrrolidin-4-ylthio)-6-(1-hydroxyethyl)-1-methylcarbapenem-3-carboxylic acid], the MIC with E. coli TEM worked out at 0.03 µg/mL (≈ 0.0593 µM); in assay [1] it was 0.06 µg/mL (≈ 0.119 µM); against Enterobacter cloacae 108, 1 µg/mL (≈ 1.98 µM); in the assay on S. aureus 147N, 0.25 µg/mL (≈ 0.495 µM).

For the compound `C[C@@H](O)[C@H]1C(=O)N2C(C(=O)O)=C(S[C@@H]3CN[C@H](C(=O)Nc4cccc(C(=O)NCC(=O)O)c4)C3)[C@H](C)[C@H]12` [Example 7, (1R,5S,6S,8R,2'S,4'S)-2(2-(3-Carboxymethylaminocarbonylphenylcarbamoyl)-pyrrolidin-4-ylthio)-6-(1-hydroxyethyl)-1-methylcarbapenem-3-carboxylic acid], the MIC with E. coli TEM is 0.03 µg/mL (≈ 0.0563 µM); in assay [1], 0.13 µg/mL (≈ 0.244 µM); against Enterobacter cloacae 108 it was 1 µg/mL (≈ 1.88 µM); in the assay with S. aureus 147N, 0.25 µg/mL (≈ 0.469 µM).

Regarding `C[C@@H](O)[C@H]1C(=O)N2C(C(=O)O)=C(S[C@@H]3CN[C@H](C(=O)Nc4cc(/C=C/C(=O)O)ccc4O)C3)[C@H](C)[C@H]12` [Example 2, (1R,5S,6S,8R,2'S,4'S)-2-(2-(3-(E-2-Carboxy-1-ethenyl)-6-hydroxyphenylcarbamoyl)pyrrolidin-4-ylthio)-6-(1-hydroxyethyl)-1-methylcarbapenem-3-carboxylic acid], the MIC in the assay on E. coli TEM was 0.06 µg/mL (≈ 0.116 µM); in assay [1], 0.25 µg/mL (≈ 0.483 µM); against Enterobacter cloacae 108 it was 4 µg/mL (≈ 7.73 µM); against S. aureus 147N, 0.25 µg/mL (≈ 0.483 µM).

Regarding `C[C@@H](O)[C@H]1C(=O)N2C(C(=O)O)=C(S[C@@H]3CN[C@H](C(=O)Nc4cccc(/C=C/C(=O)O)c4)C3)[C@H](C)[C@H]12` [Example 1, (1R,5S,6S,8R,2'S,4'S)-2-(2-(3-(E-2-Carboxy-1-ethenyl)phenylcarbamoyl)pyrrolidin-4-ylthio)-6-(1-hydroxyethyl)-1-methylcarbapenem-3-carboxylic acid], the MIC in the assay with E. coli TEM is 0.03 µg/mL (≈ 0.0598 µM); in assay [1], 0.13 µg/mL (≈ 0.259 µM); with Enterobacter cloacae 108, 2 µg/mL (≈ 3.99 µM); against S. aureus 147N, 0.13 µg/mL (≈ 0.259 µM).

Consider `CO/N=C(\C(=O)N[C@@H]1C(=O)N2C(C(=O)O)=C(CSc3nc(=O)c(=O)[nH]n3C)CS[C@H]12)c1csc(N)n1` [ceftriaxone, reference compound], for which the MIC in the assay with E. coli TEM is 0.03 µg/mL (≈ 0.0541 µM); in assay [1], 0.06 µg/mL (≈ 0.108 µM); with Enterobacter cloacae 108, 32 µg/mL (≈ 57.7 µM); against S. aureus 147N, 2 µg/mL (≈ 3.61 µM).
